# Results reported in patent publication US20160361252A1, “ANHYDROUS MULTIPHASE GEL SYSTEM” (priority 2005, published 2016).
# System: DNFB-induced allergic contact dermatitis
# Test: DNFB-induced contact dermatitis in mice (allergic contact dermatitis model)
# Format: in vivo, mice (NMRI)
# Conditions: ascrolimus applied in the EDR system, 0.1, 0.3, 1.0%, ear homogenates, 24 hours
# Text: Various models can be used in order to determine the effectiveness and bioavailability of active substances as a function of the topical medication used. A suitable pharmacological model within the scope of anti-inflammatory therapy on the skin is represented by the “Irritant contact dermatitis (ICD)” model in mice. In this model, the inflammatory components of eczema are imitated. This inflammatory aspect likewise plays a role in allergic contact dermatitis and atopic dermatitis with the participation of allergen-specific T cells intrinsic to the skin. Therefore, a T-cell-dependent model of allergic contact dermatitis (in reaction to dinitrofluorobenzene, DNFB) can be utilized. Acute and chronic allergic contact dermatitis (ACD) is characterized by a type-1 dominated cytokine profile. Therefore, the ACD model induced by dinitrofluorobenzene (DNFB) was used in order to assess in vivo the activity of the active substance “ascrolimus” (topical immunomodulator). After sensitizing by means of DNFB, edema was produced by subsequent application of the same contact allergens and therefore, a cutaneous infiltration of allergenic T-cells and granulocytes was triggered. The mice (NMRI) were sensitized with 0.5% DNFB on day 0 and day 1. On day 5, the mice were again treated with 0.3% DNFB. […]
substance,measurement,value
ascrolimus,"peroxidase activity as a measure for granulocyte infiltration (delta peroxidase, FIG. 5)",significant concentration-dependent inhibition
